# From ChEMBL document CHEMBL4145553, “Design, synthesis, and biological evaluation of novel amide and hydrazide based thioether analogs targeting Histone deacteylase (HDAC) enzymes” (Eur J Med Chem, 2018)
# What was measured:
# Format in all cases: functional
# [1] = tested on: SF-295; assay: Growth inhibition of human SF295 cells assessed as cell growth at 10^-4 M incubated for 48 hrs by sulforhodamine B assay relative to control; conditions: SF-295, 48 h, read-out: Activity
# [2] = tested on: U-251; assay: Growth inhibition of human U251 cells assessed as cell growth at 10^-8 M incubated for 48 hrs by sulforhodamine B assay relative to control; conditions: U-251, 48 h, read-out: Activity
# [3] = tested on: SW-620; assay: Growth inhibition of human SW620 cells assessed as cell growth at 10^-5 M incubated for 48 hrs by sulforhodamine B assay relative to control; conditions: SW-620, 48 h, read-out: Activity
# [4] = tested on: HOP-62; assay: Growth inhibition of human HOP62 cells assessed as cell growth at 10^-7 M incubated for 48 hrs by sulforhodamine B assay relative to control; conditions: HOP-62, 48 h, read-out: Activity
# [5] = tested on: UACC-257; assay: Growth inhibition of human UACC257 cells assessed as cell growth at 10^-4 M incubated for 48 hrs by sulforhodamine B assay relative to control; conditions: UACC-257, 48 h, read-out: Activity
# [6] = tested on: NCI-H322M; assay: Growth inhibition of human NCI-H322M cells incubated for 48 hrs by sulforhodamine B assay
# [7] = tested on: MCF7; assay: Growth inhibition of human MCF7 cells assessed as cell growth at 10^-6 M incubated for 48 hrs by sulforhodamine B assay relative to control; conditions: MCF7, 48 h, read-out: Activity
# [8] = tested on: MDA-MB-468; assay: Growth inhibition of human MDA-MB-468 cells assessed as cell growth at 10^-8 M incubated for 48 hrs by sulforhodamine B assay relative to control; conditions: MDA-MB-468, 48 h, read-out: Activity
# [9] = tested on: KM12; assay: Growth inhibition of human KM12 cells assessed as cell growth at 10^-5 M incubated for 48 hrs by sulforhodamine B assay relative to control; conditions: KM12, 48 h, read-out: Activity
# [10] = tested on: ACHN; assay: Growth inhibition of human ACHN cells incubated for 48 hrs by sulforhodamine B assay
# [11] = tested on: A549; assay: Growth inhibition of human A549/ATCC cells assessed as cell growth at 10^-6 M incubated for 48 hrs by sulforhodamine B assay relative to control; conditions: A549, 48 h, read-out: Activity
# [12] = tested on: RPMI-8226; assay: Growth inhibition of human RPMI8226 cells assessed as cell growth at 10^-7 M incubated for 48 hrs by sulforhodamine B assay relative to control; conditions: RPMI-8226, 48 h, read-out: Activity
# [13] = tested on: EKVX; assay: Growth inhibition of human EKVX cells incubated for 48 hrs by sulforhodamine B assay
# [14] = tested on: Malme-3M; assay: Growth inhibition of human MALME-3M cells assessed as cell growth at 10^-8 M incubated for 48 hrs by sulforhodamine B assay relative to control; conditions: read-out: Activity
# [15] = tested on: SF-268; assay: Growth inhibition of human SF268 cells assessed as cell growth at 10^-6 M incubated for 48 hrs by sulforhodamine B assay relative to control; conditions: SF-268, 48 h, read-out: Activity
# [16] = tested on: ACHN; assay: Growth inhibition of human ACHN cells assessed as cell growth at 10^-6 M incubated for 48 hrs by sulforhodamine B assay relative to control; conditions: read-out: Activity
# [17] = tested on: COLO 205; assay: Growth inhibition of human COLO205 cells assessed as cell growth at 10^-8 M incubated for 48 hrs by sulforhodamine B assay relative to control; conditions: COLO 205, 48 h, read-out: Activity
# [18] = tested on: SF-295; assay: Growth inhibition of human SF295 cells incubated for 48 hrs by sulforhodamine B assay; conditions: SF-295, 48 h
# [19] = tested on: MOLT-4; assay: Growth inhibition of human MOLT4 cells assessed as cell growth at 10^-4 M incubated for 48 hrs by sulforhodamine B assay relative to control; conditions: MOLT-4, 48 h, read-out: Activity
# [20] = tested on: OVCAR-3; assay: Growth inhibition of human OVCAR3 cells incubated for 48 hrs by sulforhodamine B assay; conditions: OVCAR-3, 48 h
# [21] = tested on: SR; assay: Growth inhibition of human SR cells assessed as cell growth at 10^-4 M incubated for 48 hrs by sulforhodamine B assay relative to control; conditions: read-out: Activity
# [22] = tested on: T47D; assay: Growth inhibition of human T47D cells assessed as cell growth at 10^-7 M incubated for 48 hrs by sulforhodamine B assay relative to control; conditions: read-out: Activity
# [23] = tested on: SN12C; assay: Growth inhibition of human SN12C cells assessed as cell growth at 10^-7 M incubated for 48 hrs by sulforhodamine B assay relative to control; conditions: read-out: Activity
# [24] = tested on: SR; assay: Growth inhibition of human SR cells assessed as cell growth at 10^-8 M incubated for 48 hrs by sulforhodamine B assay relative to control; conditions: read-out: Activity
# [25] = tested on: NCI-H322M; assay: Growth inhibition of human NCI-H322M cells assessed as cell growth at 10^-5 M incubated for 48 hrs by sulforhodamine B assay relative to control; conditions: read-out: Activity
# [26] = tested on: HCT-116; assay: Growth inhibition of human HCT116 cells assessed as cell growth at 10^-8 M incubated for 48 hrs by sulforhodamine B assay relative to control; conditions: HCT-116, 48 h, read-out: Activity
# [27] = tested on: A549; assay: Growth inhibition of human A549/ATCC cells assessed as cell growth at 10^-7 M incubated for 48 hrs by sulforhodamine B assay relative to control; conditions: A549, 48 h, read-out: Activity
# [28] = tested on: MOLT-4; assay: Growth inhibition of human MOLT4 cells incubated for 48 hrs by sulforhodamine B assay; conditions: MOLT-4, 48 h
# [29] = tested on: DU-145; assay: Growth inhibition of human DU145 cells assessed as cell growth at 10^-7 M incubated for 48 hrs by sulforhodamine B assay relative to control; conditions: DU-145, 48 h, read-out: Activity
# [30] = tested on: HL-60; assay: Induction of apoptosis in human HL60 cells assessed as necrotic cells by propidium iodide/Annexin V staining based flow cytometry (reference value: 0.34%)
# [31] = tested on: K562; assay: Growth inhibition of human K562 cells assessed as cell growth at 10^-4 M incubated for 48 hrs by sulforhodamine B assay relative to control; conditions: K562, 48 h, read-out: Activity
# [32] = read-out: LC50 (the source's name)
# [33] = read-out: pLC50 (the source's name) (converted)
compound,measurement,setting,value
CCS/C(Nc1ccccc1)=C(\C#N)C(=O)Nc1ccc(OC)cc1,growth at 100 µM,[1],6%
same,growth at 0.01 µM,[2],97%
same,growth at 10 µM,[3],21%
same,growth at 0.1 µM,[4],84%
same,growth at 100 µM,[5],37%
same,GI50,[6]; read-out: GI50,5.81 µM
same,CC50,[6]; [32],> 100 µM
same,TGI,[6]; read-out: TGI,> 100 µM
same,GI50,[6]; read-out: pGI50 (converted),5.75 µM
same,CC50,[6]; [33],> 100 µM
same,TGI,[6]; read-out: pTGI,> 100 µM
same,growth at 1 µM,[7],77%
same,growth at 0.01 µM,[8],105%
same,growth at 10 µM,[9],28%
same,GI50,[10]; read-out: GI50,5.04 µM
same,CC50,[10]; [32],> 100 µM
same,TGI,[10]; read-out: TGI,> 100 µM
same,GI50,[10]; read-out: pGI50 (converted),5.01 µM
same,CC50,[10]; [33],> 100 µM
same,TGI,[10]; read-out: pTGI,> 100 µM
same,growth at 1 µM,[11],99%
same,growth at 0.1 µM,[12],89%
same,GI50,[13]; read-out: GI50,4.42 µM
same,CC50,[13]; [32],> 100 µM
same,TGI,[13]; read-out: TGI,> 100 µM
same,GI50,[13]; read-out: pGI50 (converted),4.47 µM
same,CC50,[13]; [33],> 100 µM
same,TGI,[13]; read-out: pTGI,> 100 µM
same,growth at 0.01 µM,[14],98%
same,growth at 1 µM,[15],90%
same,growth at 1 µM,[16],90%
same,growth at 0.01 µM,[17],111%
same,GI50,[18]; read-out: GI50,3.06 µM
same,CC50,[18]; [32],> 100 µM
same,TGI,[18]; read-out: TGI,> 100 µM
same,GI50,[18]; read-out: pGI50 (converted),3.09 µM
same,CC50,[18]; [33],> 100 µM
same,TGI,[18]; read-out: pTGI,> 100 µM
same,growth at 100 µM,[19],18%
same,GI50,[20]; read-out: GI50,2.61 µM
same,CC50,[20]; [32],> 100 µM
same,TGI,[20]; read-out: TGI,8.59 µM
same,GI50,[20]; read-out: pGI50 (converted),2.63 µM
same,CC50,[20]; [33],> 100 µM
same,TGI,[20]; read-out: pTGI (converted),8.51 µM
same,growth at 100 µM,[21],16%
same,growth at 0.1 µM,[22],89%
same,growth at 0.1 µM,[23],97%
same,growth at 0.01 µM,[24],98%
same,growth at 10 µM,[25],38%
same,growth at 0.01 µM,[26],100%
same,growth at 0.1 µM,[27],94%
same,GI50,[28]; read-out: GI50,2.61 µM
same,CC50,[28]; [32],> 100 µM
same,TGI,[28]; read-out: TGI,> 100 µM
same,GI50,[28]; read-out: pGI50 (converted),2.63 µM
same,CC50,[28]; [33],> 100 µM
same,TGI,[28]; read-out: pTGI,> 100 µM
same,growth at 0.1 µM,[29],96%
same,Activity,[30],1.98%
same,growth at 100 µM,[31],10%
CCS/C(Nc1ccccc1)=C(\C#N)C(=O)N/N=C\c1ccc(Cl)cc1Cl,growth at 100 µM,[1],3%
same,growth at 0.01 µM,[2],101%
same,growth at 10 µM,[3],31%
same,growth at 0.1 µM,[4],85%
same,growth at 100 µM,[5],35%
same,GI50,[6]; read-out: GI50,6.87 µM
same,CC50,[6]; [32],> 100 µM
same,TGI,[6]; read-out: TGI,> 100 µM
same,GI50,[6]; read-out: pGI50 (converted),6.92 µM
same,CC50,[6]; [33],> 100 µM
same,TGI,[6]; read-out: pTGI,> 100 µM
same,growth at 1 µM,[7],83%
same,growth at 0.01 µM,[8],108%
same,growth at 10 µM,[9],24%
same,GI50,[10]; read-out: GI50,7.08 µM
same,CC50,[10]; [32],> 100 µM
same,TGI,[10]; read-out: TGI,> 100 µM
same,GI50,[10]; read-out: pGI50 (converted),7.08 µM
same,CC50,[10]; [33],> 100 µM
same,TGI,[10]; read-out: pTGI,> 100 µM
same,growth at 1 µM,[11],92%
same,growth at 0.1 µM,[12],94%
same,GI50,[13]; read-out: GI50,5.09 µM
same,CC50,[13]; [32],> 100 µM
same,TGI,[13]; read-out: TGI,> 100 µM
same,GI50,[13]; read-out: pGI50 (converted),5.13 µM
same,CC50,[13]; [33],> 100 µM
same,TGI,[13]; read-out: pTGI,> 100 µM
same,growth at 0.01 µM,[14],103%
same,growth at 1 µM,[15],87%
same,growth at 1 µM,[16],92%
same,growth at 0.01 µM,[17],101%
same,GI50,[18]; read-out: GI50,2.89 µM
same,CC50,[18]; [32],> 100 µM
same,TGI,[18]; read-out: TGI,> 100 µM
same,GI50,[18]; read-out: pGI50 (converted),2.88 µM
same,CC50,[18]; [33],> 100 µM
same,TGI,[18]; read-out: pTGI,> 100 µM
same,growth at 100 µM,[19],19%
same,GI50,[20]; read-out: GI50,2.8 µM
same,CC50,[20]; [32],> 100 µM
same,TGI,[20]; read-out: TGI,10.8 µM
same,GI50,[20]; read-out: pGI50 (converted),2.82 µM
same,CC50,[20]; [33],> 100 µM
same,TGI,[20]; read-out: pTGI (converted),10.7 µM
same,growth at 100 µM,[21],7%
same,growth at 0.1 µM,[22],95%
same,growth at 0.1 µM,[23],92%
same,growth at 0.01 µM,[24],91%
same,growth at 10 µM,[25],42%
same,growth at 0.01 µM,[26],96%
same,growth at 0.1 µM,[27],92%
same,GI50,[28]; read-out: GI50,3.48 µM
same,CC50,[28]; [32],> 100 µM
same,TGI,[28]; read-out: TGI,> 100 µM
same,GI50,[28]; read-out: pGI50 (converted),3.47 µM
same,CC50,[28]; [33],> 100 µM
same,TGI,[28]; read-out: pTGI,> 100 µM
same,growth at 0.1 µM,[29],98%
same,Activity,[30],2.03%
same,growth at 100 µM,[31],7%
